Measured values: the NIST ThermoML archive (doi:10.1021/je0503554)
“And” between values parts separate entries of the source, which are not always exact repeats. Equal values may be shown once. Numbers after ± are expanded uncertainties.

Test: activity coefficient (dimensionless); of the first substance listed, at infinite dilution; xn = mol fraction of the nth substance listed
Conditions: Liquid, Chromatography, x1 = 0

`C1=CCCC=C1` [1,3-cyclohexadiene] + CCCCCC[n+]1ccn(C)c1.O=S(=O)([N-]S(=O)(=O)C(F)(F)F)C(F)(F)F showed an activity coefficient (312.05 K) of 1.8 ± 0.12, an activity coefficient (322.65 K) of 1.76 ± 0.12 and an activity coefficient (333.15 K) of 1.72 ± 0.12. The activity coefficient (343.65 K) was 1.67 ± 0.11 and the activity coefficient (354.25 K) was 1.62 ± 0.11.

Compound `C1COCCO1` [1,4-dioxane] + CCCCCC[n+]1ccn(C)c1.O=S(=O)([N-]S(=O)(=O)C(F)(F)F)C(F)(F)F has an activity coefficient (375.15 K) of 0.04 and an activity coefficient (396.15 K) of 0.047.

In the case of `C=CCCCCCCCC` [1-decene] + CCCCCC[n+]1ccn(C)c1.O=S(=O)([N-]S(=O)(=O)C(F)(F)F)C(F)(F)F, the activity coefficient (312.25 K) is reported as 16 ± 1.1, the activity coefficient (322.85 K) is reported as 15.2 ± 1 and the activity coefficient (333.15 K) is reported as 14.1 ± 0.96. For the same compound, the activity coefficient (333.25 K) was 14.4 ± 0.98, the activity coefficient (343.75 K) was 13.5 and 13.3 and the activity coefficient (354.15 K) was 13.1 ± 0.89. It also gave an activity coefficient (364.55 K) of 11.9 ± 0.81.

With `C=CCCCCCCCCCC` [1-dodecene] + CCCCCC[n+]1ccn(C)c1.O=S(=O)([N-]S(=O)(=O)C(F)(F)F)C(F)(F)F the activity coefficient (333.15 K) was 25.6 ± 1.8, the activity coefficient (343.75 K) was 23.1 and 22.7 and the activity coefficient (354.15 K) was 21.1 and 20.5. For the same compound, the activity coefficient (364.55 K) was 19.3 ± 1.3, the activity coefficient (364.65 K) was 18.7 ± 1.3 and the activity coefficient (374.95 K) was 16.9 ± 1.1.

Compound `C=CCCCCC` [1-heptene] + CCCCCC[n+]1ccn(C)c1.O=S(=O)([N-]S(=O)(=O)C(F)(F)F)C(F)(F)F has an activity coefficient (301.95 K) of 6.36 ± 0.43, an activity coefficient (312.45 K) of 6.18 ± 0.42 and an activity coefficient (322.95 K) of 5.96 ± 0.41. The activity coefficient (333.45 K) was 5.69 ± 0.39, the activity coefficient (343.95 K) was 5.44 ± 0.37 and the activity coefficient (354.35 K) was 5.26 ± 0.36.

Work on `C=CCCCCCCC` [1-nonene] + CCCCCC[n+]1ccn(C)c1.O=S(=O)([N-]S(=O)(=O)C(F)(F)F)C(F)(F)F yielded an activity coefficient (312.25 K) of 12.5 ± 0.85, an activity coefficient (322.75 K) of 11.8 ± 0.81 and an activity coefficient (333.15 K) of 11.2 ± 0.76. It also gave an activity coefficient (333.35 K) of 11.1 ± 0.75, an activity coefficient (343.75 K) of 10.5 ± 0.71 and an activity coefficient (354.15 K) of 9.99 ± 0.68. The activity coefficient (364.55 K) was 9.54 ± 0.65.

`C=CCCC` [1-pentene] + CCCCCC[n+]1ccn(C)c1.O=S(=O)([N-]S(=O)(=O)C(F)(F)F)C(F)(F)F gave an activity coefficient (301.95 K) of 3.63 ± 0.23, an activity coefficient (312.45 K) of 3.54 ± 0.23 and an activity coefficient (322.95 K) of 3.43 ± 0.24. It also gave an activity coefficient (333.45 K) of 3.39 ± 0.25.

Work on `C=CCCCCCCCCC` [1-undecene] + CCCCCC[n+]1ccn(C)c1.O=S(=O)([N-]S(=O)(=O)C(F)(F)F)C(F)(F)F yielded an activity coefficient (322.65 K) of 21 ± 1.4, an activity coefficient (333.15 K) of 19.2 ± 1.3 and an activity coefficient (343.75 K) of 17.4 ± 1.2. The activity coefficient (359.4 K) was 15.4 ± 1.1, the activity coefficient (369.85 K) was 14.3 ± 0.97 and the activity coefficient (375.05 K) was 14.1 ± 0.96.

`CC(C)CO` [2-methyl-1-propanol] + CCCCCC[n+]1ccn(C)c1.O=S(=O)([N-]S(=O)(=O)C(F)(F)F)C(F)(F)F gave an activity coefficient (301.65 K) of 2.46 ± 0.17, an activity coefficient (312.15 K) of 2.19 ± 0.15 and an activity coefficient (322.85 K) of 1.9 ± 0.13. It also gave an activity coefficient (333.35 K) of 1.68 ± 0.11.

In the case of `CCC(C)(C)O` [2-methylbutan-2-ol] + CCCCCC[n+]1ccn(C)c1.O=S(=O)([N-]S(=O)(=O)C(F)(F)F)C(F)(F)F, the activity coefficient (301.65 K) is reported as 1.7 ± 0.11, the activity coefficient (312.25 K) is reported as 1.53 ± 0.1 and the activity coefficient (322.75 K) is reported as 1.4 ± 0.09. For the same compound, the activity coefficient (333.25 K) was 1.3 ± 0.08, the activity coefficient (343.75 K) was 1.22 ± 0.08 and the activity coefficient (354.05 K) was 1.14 ± 0.07. For the same compound, the activity coefficient (364.55 K) was 1.06 ± 0.07.

Work on `CC(C)(C)O` [2-methylpropan-2-ol] + CCCCCC[n+]1ccn(C)c1.O=S(=O)([N-]S(=O)(=O)C(F)(F)F)C(F)(F)F yielded an activity coefficient (301.65 K) of 1.7 ± 0.11, an activity coefficient (312.15 K) of 1.51 ± 0.1 and an activity coefficient (322.85 K) of 1.34 ± 0.09. For the same compound, the activity coefficient (333.35 K) was 1.21 ± 0.08.

`CC(C)=O` [acetone] + CCCCCC[n+]1ccn(C)c1.O=S(=O)([N-]S(=O)(=O)C(F)(F)F)C(F)(F)F gave an activity coefficient (301.75 K) of 0.352 ± 0.032, an activity coefficient (302.25 K) of 0.352 ± 0.032 and an activity coefficient (312.25 K) of 0.357 ± 0.033. It also gave an activity coefficient (322.85 K) of 0.362 ± 0.033, an activity coefficient (333.35 K) of 0.366 ± 0.033 and an activity coefficient (343.85 K) of 0.371 ± 0.033. For the same compound, the activity coefficient (354.25 K) was 0.375 ± 0.033.

`CC#N` [acetonitrile] + CCCCCC[n+]1ccn(C)c1.O=S(=O)([N-]S(=O)(=O)C(F)(F)F)C(F)(F)F gave an activity coefficient (312.25 K) of 0.456 ± 0.036, an activity coefficient (322.85 K) of 0.446 ± 0.036 and an activity coefficient (333.35 K) of 0.434 ± 0.035. It also gave an activity coefficient (343.85 K) of 0.426 ± 0.035 and an activity coefficient (354.25 K) of 0.413 ± 0.034.

In the case of `c1ccccc1` [benzene] + CCCCCC[n+]1ccn(C)c1.O=S(=O)([N-]S(=O)(=O)C(F)(F)F)C(F)(F)F, the activity coefficient (301.65 K) is reported as 0.779 and 0.778, the activity coefficient (306.95 K) is reported as 0.776 ± 0.051 and the activity coefficient (312.25 K) is reported as 0.776 ± 0.051. The activity coefficient (322.75 K) was 0.777 ± 0.051, the activity coefficient (322.85 K) was 0.773 ± 0.051 and the activity coefficient (333.25 K) was 0.777 and 0.774. For the same compound, the activity coefficient (343.75 K) was 0.769 ± 0.05.

`CCCCO` [butan-1-ol] + CCCCCC[n+]1ccn(C)c1.O=S(=O)([N-]S(=O)(=O)C(F)(F)F)C(F)(F)F showed an activity coefficient (322.65 K) of 2.06 ± 0.14, an activity coefficient (333.15 K) of 1.83 ± 0.12 and an activity coefficient (343.65 K) of 1.67 ± 0.11. The activity coefficient (354.15 K) was 1.53 ± 0.1.

`CCC(C)O` (centres undefined) [butan-2-ol] + CCCCCC[n+]1ccn(C)c1.O=S(=O)([N-]S(=O)(=O)C(F)(F)F)C(F)(F)F gave an activity coefficient (301.65 K) of 2.14 ± 0.15, an activity coefficient (312.15 K) of 1.9 ± 0.13 and an activity coefficient (322.85 K) of 1.66 ± 0.11. It also gave an activity coefficient (333.35 K) of 1.47 ± 0.1.

In the case of `CCCC=O` [butanal] + CCCCCC[n+]1ccn(C)c1.O=S(=O)([N-]S(=O)(=O)C(F)(F)F)C(F)(F)F, the activity coefficient (301.75 K) is reported as 0.578 ± 0.041, the activity coefficient (312.25 K) is reported as 0.576 ± 0.041 and the activity coefficient (322.85 K) is reported as 0.574 ± 0.041. It also gave an activity coefficient (333.35 K) of 0.572 ± 0.041.

Work on `CCCCc1ccccc1` [butylbenzene] + CCCCCC[n+]1ccn(C)c1.O=S(=O)([N-]S(=O)(=O)C(F)(F)F)C(F)(F)F yielded an activity coefficient (354.25 K) of 2.72 ± 0.19, an activity coefficient (364.65 K) of 2.69 ± 0.18 and an activity coefficient (375.15 K) of 2.66 ± 0.18. The activity coefficient (385.65 K) was 2.62 ± 0.18.

With `C1CCCCC1` [cyclohexane] + CCCCCC[n+]1ccn(C)c1.O=S(=O)([N-]S(=O)(=O)C(F)(F)F)C(F)(F)F the activity coefficient (300.95 K) was 5.65 ± 0.39, the activity coefficient (312.25 K) was 5.23 ± 0.36 and the activity coefficient (322.85 K) was 4.9 ± 0.33. For the same compound, the activity coefficient (333.25 K) was 4.59 ± 0.31.

Compound `OC1CCCCC1` [cyclohexanol] + CCCCCC[n+]1ccn(C)c1.O=S(=O)([N-]S(=O)(=O)C(F)(F)F)C(F)(F)F has an activity coefficient (354.05 K) of 1.87 ± 0.13, an activity coefficient (364.55 K) of 1.6 ± 0.11 and an activity coefficient (374.95 K) of 1.43 ± 0.09. For the same compound, the activity coefficient (385.45 K) was 1.29 ± 0.08 and the activity coefficient (395.95 K) was 1.2 ± 0.08.

Work on `C1=CCCCC1` [cyclohexene] + CCCCCC[n+]1ccn(C)c1.O=S(=O)([N-]S(=O)(=O)C(F)(F)F)C(F)(F)F yielded an activity coefficient (301.85 K) of 3.41 ± 0.23, an activity coefficient (312.25 K) of 3.24 ± 0.22 and an activity coefficient (322.85 K) of 3.08 ± 0.21. For the same compound, the activity coefficient (333.25 K) was 2.94 ± 0.2 and the activity coefficient (343.75 K) was 2.83 ± 0.19.

For `CCCCCCCCCC` [decane] + CCCCCC[n+]1ccn(C)c1.O=S(=O)([N-]S(=O)(=O)C(F)(F)F)C(F)(F)F, the activity coefficient (307.05 K) was 28.5 ± 1.9, the activity coefficient (312.35 K) was 27.4 ± 1.9 and the activity coefficient (322.85 K) was 25.6 ± 1.8. The activity coefficient (333.35 K) was 22.9 ± 1.6.

In the case of `CCCCCCCCCCCC` [dodecane] + CCCCCC[n+]1ccn(C)c1.O=S(=O)([N-]S(=O)(=O)C(F)(F)F)C(F)(F)F, the activity coefficient (333.35 K) is reported as 39.6 ± 2.7, the activity coefficient (343.75 K) is reported as 36.4 ± 2.5 and the activity coefficient (354.25 K) is reported as 34.2 ± 2.3. The activity coefficient (364.75 K) was 30.3 ± 2.1.

For `CCO` [ethanol] + CCCCCC[n+]1ccn(C)c1.O=S(=O)([N-]S(=O)(=O)C(F)(F)F)C(F)(F)F, the activity coefficient (301.95 K) was 1.95 ± 0.13, the activity coefficient (312.45 K) was 1.71 ± 0.11 and the activity coefficient (323.05 K) was 1.51 ± 0.1. It also gave an activity coefficient (333.45 K) of 1.35 ± 0.09, an activity coefficient (343.95 K) of 1.2 ± 0.08 and an activity coefficient (354.45 K) of 1.08 ± 0.07.

For `CCc1ccccc1` [ethylbenzene] + CCCCCC[n+]1ccn(C)c1.O=S(=O)([N-]S(=O)(=O)C(F)(F)F)C(F)(F)F, the activity coefficient (322.85 K) was 1.55 ± 0.1, the activity coefficient (333.35 K) was 1.55 ± 0.1 and the activity coefficient (343.85 K) was 1.54 ± 0.1. For the same compound, the activity coefficient (354.25 K) was 1.53 ± 0.1.

`CCCCCCCO` [heptan-1-ol] + CCCCCC[n+]1ccn(C)c1.O=S(=O)([N-]S(=O)(=O)C(F)(F)F)C(F)(F)F gave an activity coefficient (354.05 K) of 4.61 ± 0.31, an activity coefficient (364.63 K) of 4.13 ± 0.28 and an activity coefficient (375.05 K) of 3.73 ± 0.25. It also gave an activity coefficient (385.6 K) of 3.42 ± 0.23.
